{
  "source": "ChEMBL document CHEMBL3886816",
  "about": "“Substituted 5-(3,5-dimethylisoxazol-4-yl)indoline-2-ones” (2016)",
  "key": {"[1]": {"target": "Bromodomain-containing protein 4 (Homo sapiens, UniProt O60885)", "experiment": "(§1) Time-Resolved Fluorescence Resonance Energy Transfer (TR-FRET) Assay: The assay was carried out in binding mixtures of the bromodomain protein, 0-10 μM compounds and tetra-acetylated histone peptide (SGRGAC.KGGAC.KGLGAC.KGGAAC.[…]-biotin) in buffer containing 25 mM HEPES pH 7.5, 100 mM NaCl, 0.1% BSA, 0.05% CHAPS, and detection reagents. […] Upon further incubation for 1 hr, the TR-FRET signals were recorded on a BMG PHERAstar FS instrument."}, "[2]": {"target": "Bromodomain-containing protein 3 (Homo sapiens, UniProt Q15059)", "sequence (Q15059 whole entry)": "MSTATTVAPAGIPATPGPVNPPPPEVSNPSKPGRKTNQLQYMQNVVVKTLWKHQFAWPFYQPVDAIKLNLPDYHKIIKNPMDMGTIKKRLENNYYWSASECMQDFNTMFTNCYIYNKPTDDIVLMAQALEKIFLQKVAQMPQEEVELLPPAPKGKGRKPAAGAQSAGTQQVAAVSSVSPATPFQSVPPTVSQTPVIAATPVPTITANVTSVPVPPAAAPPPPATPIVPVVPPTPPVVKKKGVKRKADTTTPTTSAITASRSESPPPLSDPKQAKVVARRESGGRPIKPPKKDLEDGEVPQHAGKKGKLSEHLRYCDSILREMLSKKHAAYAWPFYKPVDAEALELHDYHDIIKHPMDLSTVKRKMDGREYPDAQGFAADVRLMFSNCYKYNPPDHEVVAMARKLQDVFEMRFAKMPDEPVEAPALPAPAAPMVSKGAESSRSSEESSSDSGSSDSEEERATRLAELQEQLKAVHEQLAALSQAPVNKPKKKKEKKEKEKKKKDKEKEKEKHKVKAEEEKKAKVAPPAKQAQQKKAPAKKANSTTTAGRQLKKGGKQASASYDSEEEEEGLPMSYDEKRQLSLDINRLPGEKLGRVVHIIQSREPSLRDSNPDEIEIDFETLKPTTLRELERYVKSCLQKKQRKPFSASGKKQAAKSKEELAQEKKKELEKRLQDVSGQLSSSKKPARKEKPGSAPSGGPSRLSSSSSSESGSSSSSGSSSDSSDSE", "experiment": "as §1"}, "[3]": {"target": "Bromodomain-containing protein 2 (Homo sapiens, UniProt P25440)", "sequence (P25440 whole entry)": "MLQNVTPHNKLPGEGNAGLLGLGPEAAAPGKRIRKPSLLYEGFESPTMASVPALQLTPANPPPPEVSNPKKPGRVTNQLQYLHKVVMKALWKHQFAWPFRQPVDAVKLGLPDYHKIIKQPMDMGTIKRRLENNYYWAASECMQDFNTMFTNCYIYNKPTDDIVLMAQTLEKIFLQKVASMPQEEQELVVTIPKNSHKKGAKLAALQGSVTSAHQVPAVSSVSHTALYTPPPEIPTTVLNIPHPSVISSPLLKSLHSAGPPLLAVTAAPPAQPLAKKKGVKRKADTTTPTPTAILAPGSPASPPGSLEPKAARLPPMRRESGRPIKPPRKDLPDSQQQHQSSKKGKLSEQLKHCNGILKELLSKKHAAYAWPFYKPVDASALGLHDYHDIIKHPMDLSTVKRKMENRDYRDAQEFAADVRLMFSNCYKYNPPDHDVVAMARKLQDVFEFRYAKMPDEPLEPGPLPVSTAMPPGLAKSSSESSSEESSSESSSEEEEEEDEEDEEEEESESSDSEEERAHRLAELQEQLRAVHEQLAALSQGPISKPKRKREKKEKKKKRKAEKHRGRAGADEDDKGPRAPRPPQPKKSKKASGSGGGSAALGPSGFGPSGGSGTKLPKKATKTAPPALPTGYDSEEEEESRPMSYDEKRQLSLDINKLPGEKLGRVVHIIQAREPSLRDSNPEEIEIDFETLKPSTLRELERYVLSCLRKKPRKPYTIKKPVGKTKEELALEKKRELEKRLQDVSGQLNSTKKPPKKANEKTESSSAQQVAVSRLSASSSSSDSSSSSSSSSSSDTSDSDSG", "experiment": "as §1"}, "[4]": {"target": "Bromodomain testis-specific protein (Homo sapiens, UniProt Q58F21)", "experiment": "as §1"}},
  "data": [
    {"smiles": "Cc1noc(C)c1-c1ccc2c(c1)C(C1CCCCC1)(N1CCN(C)CC1)C(=O)N2", "note": "(stereo not given)", "values": [
      {"measurement": "IC50", "setting": "[1]", "value": 110, "unit": "nM"}
    ]},
    {"smiles": "Cc1noc(C)c1-c1ccc2c(c1)C(OCCO)(C1CCCCC1)C(=O)N2", "note": "(stereo not given)", "values": [
      {"measurement": "IC50", "setting": "[1]", "value": 82, "unit": "nM"}
    ]},
    {"smiles": "C=CCCC1(O)C(=O)Nc2ccc(-c3c(C)noc3C)cc21", "note": "(stereo not given)", "values": [
      {"measurement": "IC50", "setting": "[1]", "value": 430, "unit": "nM"}
    ]},
    {"smiles": "Cc1noc(C)c1-c1ccc2c(c1)C(O)(C1CCCCCC1)C(=O)N2", "note": "(stereo not given)", "values": [
      {"measurement": "IC50", "setting": "[1]", "value": 98, "unit": "nM"}
    ]},
    {"smiles": "C=CCCCC1(O)C(=O)Nc2ccc(-c3c(C)noc3C)cc21", "note": "(stereo not given)", "values": [
      {"measurement": "IC50", "setting": "[1]", "value": 540, "unit": "nM"}
    ]},
    {"smiles": "Cc1noc(C)c1-c1ccc2c(c1)C(C1CCCC1)(N1CCN(C)CC1)C(=O)N2", "note": "(stereo not given)", "values": [
      {"measurement": "IC50", "setting": "[1]", "value": 180, "unit": "nM"}
    ]},
    {"smiles": "Cc1noc(C)c1-c1ccc2c(c1)C(N)(c1ccccc1)C(=O)N2", "note": "(single isomer, unassigned)", "values": [
      {"measurement": "IC50", "setting": "[2]", "value": 35, "unit": "nM"},
      {"measurement": "IC50", "setting": "[3]", "value": 55, "unit": "nM"},
      {"measurement": "IC50", "setting": "[1]", "value": 150, "unit": "nM"},
      {"measurement": "IC50", "setting": "[4]", "value": 95, "unit": "nM"}
    ]}
  ]
}
